This note sets out measurements from patent publication US11926619B2, “Certain pladienolide compounds and methods of use” (EISAI R&D MANAGEMENT CO., LTD., priority 2018, dated 2024).

Each structure is given as a SMILES string. Where two headings read alike, the source gives them in different places.

Holding throughout (type): cell-based
Assay [1] concerns WiDr-R cells (colon cancer cells; chemically-induced SF3B1 R1074H mutant). Description: Cell viability assay (CellTiter-Glo, 72 hr), resistant WiDr-R cells (counter-screen). The conditions noted are these: WiDr-R cells (SF3B1 R1074H mutation, resistant); read-out: WiDr-R GI50. The method, then:
(§1) Cells (WiDr and Panc05.04 obtained from ATCC) were seeded in 96-well plates, with 2000 cells/100 μL/well, and incubated overnight. Spent media was removed, and fresh media containing 9 different concentrations of compound (100 μL/well) were added, with DMSO concentration from compound stock solution adjusted to be 0.1%. Each compound treatment was done in duplicate or triplicate at each concentration.
(§2) Another plate with cells seeded was dedicated as a time zero (Tz) plate, to which was added 0.1% DMSO in media (100 μL/well) followed by CellTiter-Glo® reagent (Promega Corporation, Madison, Wisconsin) (50 μL/well) for ATP measurement as a surrogate of cell viability. Average value from measurement of multiple wells of this plate is used as Tz. Compound-treated plates were incubated for 72 hr at 37° C. Then, CellTiter-Glo® reagent (50 μL/well) was added and ATP was measured. Average value from measurement of the duplicate or triplicate compound-treated wells is used as Ti, and seeded plates with medium having 0.1% DMSO without compound is used as control growth (C).
(§3) Percentage growth inhibition/Percentage viability was calculated as:
(§4) [(Ti−Tz)/(C−Tz)]×100 for concentrations for which Ti>/=Tz
(§5) [(Ti−Tz)/Tz]×100 for concentrations for which Ti<Tz.
(§6) *time zero (Tz), control growth (C), and test growth in the presence of compound (Ti) Percentage growth inhibition/Percentage viability are plotted versus compound concentration to determine Emax.
(§7) Emax refers to the maximum achievable response to a compound in a tested dose range, with a negative value indicating cellular lethality. A larger negative Emax value indicates greater cellular lethality for a particular compound.
The counter-screening of compounds in this viability assay with a “resistant” WiDr-R cell line may indicate whether these compounds have off-target effect(s).
A general note: ATP-based viability assays read luminescence as a measure of living cells.

The subject of assay [2] is Panc 05.04 cells (pancreatic cancer cells; Q699H and K700E mutations in SF3B1). Kind of assay: Cell viability assay (CellTiter-Glo, 72 hr), Panc 05.04 cells. The conditions noted are these: for Emax: maximum achievable response in tested dose range, negative value = cellular lethality, read-out: Panc 05.04 (mt SF3B1 cells) Emax (%). The method, then:
as §1, §2, §3, §4, §5, §6, §7

Assay [3] concerns WiDr cells (colon cancer cells; wildtype SF3B1). Description: Cell viability assay (CellTiter-Glo, 72 hr), WiDr cells. The conditions noted are these: Homo sapiens. The method, then:
as §1, §2, §3, §4, §5, §6
Emax refers to the maximum achievable response to a compound in a tested dose range, with a negative value indicating cellular lethality. A larger negative Emax value indicates greater cellular lethality for a particular compound. […]

[4] abbreviates: Panc 05.04 cells (mutant SF3B1).
Setting [5] is: Panc 05.04 cells (mutant SF3B1), read-out: Panc 05.04 (mt SF3B1 cells), GI50.
[6] abbreviates: WiDr cells (wildtype SF3B1), read-out: WiDr GI50.
Where [7] appears, read: Panc 05.04, Panc05.04 cells, 72 hr, CellTiter-Glo, read-out: Panc05.04 GI50.
Setting [8] is: WiDr cells, 72 hr, CellTiter-Glo, read-out: WiDr GI50.

A word on the GI50: it is the concentration at which growth is held to half of that of the control. With `C/C(=C\C=C\[C@@H](C)c1ccccn1)[C@H]1OC(=O)C[C@H](O)CC[C@@](C)(O)[C@@H](OC(=O)N2CC3CCC(C2)N3C2CCCCCC2)/C=C/[C@@H]1C`, the GI50 is > 1000 nM in assay [1], 65 nM in assay [2] (setting [5]) and 52 nM in assay [3] (setting [6]). Also, the Emax in assay [2] (setting [4]) is -95.7%.
For the molecule `C/C(=C\C=C\CCOC(=O)N1CCCC1)[C@H]1OC(=O)C[C@H](O)CC[C@@](C)(O)[C@@H](OC(=O)N2CCN(C)CC2)/C=C/[C@@H]1C`, the figures for the GI50 in assay [1], in assay [2] (setting [5]) and in assay [3] (setting [6]) were > 5500 nM, 58.4 nM and 63.6 nM, respectively.
Take `C/C(=C\C=C\C(C)(C)COC(=O)N1CCCC1)[C@H]1OC(=O)C[C@H](OC(=O)N2CCCC2)CC[C@@](C)(O)[C@@H](OC(=O)N2CCN(C3CCCCCC3)CC2)/C=C/[C@@H]1C`: the GI50 in assay [1] was 1880 nM; in assay [2] (setting [5]) it was 86.3 nM; in assay [3] (setting [6]) it was 41.4 nM. Further, in assay [2] (setting [4]), the Emax is -92.4%.
On to `C/C(=C\C=C\[C@@H](C)COC(=O)N1CCC[C@H]1CF)[C@H]1OC(=O)C[C@H](O)CC[C@H](C)[C@@H](OC(=O)N2CCN(C)CC2)/C=C/[C@@H]1C`, for which the GI50 is > 1000 nM in assay [1], 0.339 nM in assay [2] (setting [5]) and 2.2 nM in assay [3] (setting [6]). Besides, in assay [2] (setting [4]), the Emax was -79.1%.
In the case of `COCc1ccccc1CCC(C)/C=C/C=C(\C)[C@H]1OC(=O)C[C@H](O)CC[C@@](C)(O)[C@@H](OC(C)=O)/C=C/[C@@H]1C` (stereo partly drawn), the Emax in assay [2] (setting [4]) was -39.5%. The GI50 in assay [2] (setting [5]) stood at 427 nM.
With `C/C(=C\C=C\C(C)c1ccnc(N2CCCC2)n1)[C@H]1OC(=O)CCCCC[C@@H](OC(=O)N2CCN(C3CCCCCC3)CC2)/C=C/[C@@H]1C` (stereo partly drawn), the results for the GI50 in assay [1], in assay [2] (setting [5]) and in assay [3] (setting [6]) were 4080 nM, > 10000 nM and 810 nM, respectively. The Emax in assay [2] (setting [4]) is 52%.
On the same counts, the results for `CC(=O)O[C@H]1/C=C/[C@H](C)[C@@H](/C(C)=C/C=C/C(C)CCc2ccccn2)OC(=O)C[C@H](O)CC[C@@]1(C)O` (stereo partly drawn) are > 10000 nM, 972 nM, 593 nM and 0.954%.
For `C/C(=C\C=C\[C@@H](C)COC(=O)n1ccc2ccccc21)[C@H]1OC(=O)C[C@H](O)CC[C@@](C)(O)[C@@H](OC(=O)N2CCN(C)CC2)/C=C/[C@@H]1C`, in that order: > 1000 nM, 30.5 nM, 36.6 nM and -92.8%.
Turning to `CCCCN(C)C(=O)OC[C@H](C)/C=C/C=C(\C)[C@H]1OC(=O)C[C@H](O)CC[C@@](C)(O)[C@@H](OC(C)=O)/C=C/[C@@H]1C`, the GI50 in assay [1] was > 10000 nM; in assay [2] (setting [5]) it was 198 nM; in assay [3] (setting [6]), 86.5 nM.
As for `CC(=O)O[C@H]1/C=C/[C@H](C)[C@@H](/C(C)=C/C=C/C(C)Cc2ccccn2)OC(=O)C[C@H](O)CC[C@@]1(C)O` (stereo partly drawn), the GI50 in assay [1] was > 10000 nM; in assay [2] (setting [5]) it was 1670 nM; in assay [3] (setting [6]) it was 911 nM. Also, in assay [2] (setting [4]), the Emax stood at 20.3%.
On the same counts, the results for `C/C(=C\C=C\[C@@H](C)COC(=O)N1CCc2ccccc21)[C@H]1OC(=O)C[C@H](O)CC[C@@](C)(O)[C@@H](OC(=O)N2CCN(C)CC2)/C=C/[C@@H]1C` are > 1000 nM, 16.7 nM, 19.8 nM and -97%.
On the same counts, the results for `C/C(=C\C=C\Cc1ccccn1)[C@H]1OC(=O)C[C@H](O)CC[C@@](C)(O)[C@@H](OC(=O)N2CCN(C3CCCCCC3)CC2)/C=C/[C@@H]1C` are > 1000 nM, > 4000 nM, 148 nM and 63.5%.
In the case of `CC(=O)O[C@H]1/C=C/[C@H](C)[C@@H](/C(C)=C/C=C/[C@@H](C)c2ccccn2)OC(=O)CCCCC1`, the GI50 in assay [1], in assay [2] (setting [5]) and in assay [3] (setting [6]) was > 10000 nM each time.
For `COCc1ccc(CCC(C)/C=C/C=C(\C)[C@H]2OC(=O)C[C@H](O)CC[C@@](C)(O)[C@@H](OC(C)=O)/C=C/[C@@H]2C)cc1` (stereo partly drawn), the Emax in assay [2] (setting [4]) is -67.3%. Moreover, the 50% growth inhibitory concentration (GI50) in assay [2] (setting [5]) came out at 321 nM.
`C/C(=C\C=C\C(C)c1ccnc(N2CCCC2)n1)[C@H]1OC(=O)C[C@H](O)CC[C@@](C)(O)[C@@H](OC(=O)N2CCN(C3CCCCCC3)CC2)/C=C/[C@@H]1C` (stereo partly drawn): the GI50 in assay [1] stood at 4310 nM; in assay [2] (setting [5]), 147 nM; in assay [3] (setting [6]), 23 nM. Also, the Emax in assay [2] (setting [4]) is -96.6%.
For `C/C(=C\C=C\[C@@H](C)c1ccccn1)[C@H]1OC(=O)CCCCC[C@@H](OC(=O)N2CCN(C3CCCCCC3)CC2)/C=C/[C@@H]1C`, in that order: 3820 nM, 883 nM, 258 nM and -40.6%.
For `C/C(=C\C=C\[C@@H](C)COC(=O)N1CCC[C@H]1CO)[C@H]1OC(=O)C[C@H](O)CC[C@H](C)[C@@H](OC(=O)N2CCN(C)CC2)/C=C/[C@@H]1C`, in that order: > 1000 nM, 4.36 nM, 2.66 nM and -79%.
Turning to `CC[Si](CC)(CC)O[C@@H]1CCN(c2nccc(C(C)/C=C/C=C(\C)[C@H]3OC(=O)CCCCC[C@@H](OC(=O)N4CCN(C5CCCCCC5)CC4)/C=C/[C@@H]3C)n2)C1` (stereo partly drawn), the values for the GI50 in assay [1] and in assay [3] (setting [6]) were > 10000 nM and > 1000 nM, respectively.
For `C/C(=C\C=C\[C@@H](C)COC(=O)N1CC[C@@H](F)C1)[C@H]1OC(=O)C[C@H](O)CC[C@@](C)(O)[C@@H](OC(=O)N2CCN(C3CCCCCC3)CC2)/C=C/[C@@H]1C`, the GI50 in assay [1] was > 1000 nM; in assay [2] (setting [5]), 22.5 nM; in assay [3] (setting [6]), 7.64 nM. Besides, the Emax in assay [2] (setting [4]) is -92.2%.
As to `CCC(=O)[C@@H](C)[C@H]1O[C@@H]1C[C@@](C)(O)/C=C/C=C(\C)[C@H]1OC(=O)CC(=O)CC[C@@](C)(O)[C@@H](OC(C)=O)/C=C/[C@@H]1C`, the Emax in assay [2] (setting [4]) was -81.7%. Besides, in assay [2] (setting [5]), the GI50 was found to be 97.7 nM.
For `CC(=O)O[C@H]1/C=C/[C@H](C)[C@@H](/C(C)=C/C=C/C(C)(O)CCc2ccc(O)cc2)OC(=O)C[C@H](O)CC[C@@]1(C)O` (stereo partly drawn), in that order: -70.5% and 249 nM.
On the same counts, the results for `CCOc1cccc(CCC(C)/C=C/C=C(\C)[C@H]2OC(=O)C[C@H](O)CC[C@@](C)(O)[C@@H](OC(C)=O)/C=C/[C@@H]2C)c1` (stereo partly drawn) are -32% and 508 nM.
For the molecule `C/C(=C\C=C\[C@H](C)c1cccnc1)[C@H]1OC(=O)C[C@H](O)CC[C@@](C)(O)[C@@H](OC(=O)N2CCN(C3CCCCCC3)CC2)/C=C/[C@@H]1C` (single isomer, unassigned) [Compound 160], the GI50 was 15.8 nM in assay [2] (setting [7]) and 29.5 nM in assay [3] (setting [8]).
On to `C/C(=C\C=C\[C@@H](C)COC(=O)N1CC[C@@H](O)C1)[C@H]1OC(=O)CCCCC[C@@H](OC(=O)N(C)C)/C=C/[C@@H]1C`, for which, in assay [2] (setting [4]), the Emax was -83.7%. In addition, the GI50 came to 139 nM in assay [2] (setting [5]) and 154 nM in assay [3] (WiDr, read-out: WiDr GI50 (nM)).
Turning to `CC(=O)O[C@H]1/C=C/[C@H](C)[C@@H](/C(C)=C/C=C/C(C)CCc2ccccc2)OC(=O)C[C@H](O)CC[C@@]1(C)O` (stereo partly drawn), the Emax in assay [2] (setting [4]) is -26.4%. Besides, in assay [2] (setting [5]), the GI50 amounted to 827 nM.
As for `C/C(=C\C=C\[C@@H](C)CCC(=O)N1CCCC1)[C@H]1OC(=O)CC(O)CCC(C)(O)[C@@H](OC(=O)N2CCN(C)CC2)/C=C/[C@@H]1C` (stereo in doubt) [Compound 1, [(2S,3S,4E,6S,7S,10S)-7,10-dihydroxy-3,7-dimethyl-2-[(2E,4E,6S)-6-methyl-9-oxo-9-pyrrolidin-1-ylnona-2,4-dien-2-yl]-12-oxo-1-oxacyclododec-4-en-6-yl] 4-methylpiperazine-1-carboxylate], the “cellular lethality (Emax comparison)” value in assay [2] (Panc 05.04 cells, mutant SF3B1 cell line) is “greater cellular lethality than Compound 7”.
In the case of `C/C(=C\C=C\C(C)c1cccnc1)[C@H]1OC(=O)C[C@H](O)CC[C@@](C)(O)[C@@H](OC(=O)N2CCC(N3CCC(F)CC3)CC2)/C=C/[C@@H]1C` (stereo partly drawn), the Emax in assay [2] (setting [4]) amounted to 12.5%. The GI50 in assay [2] (setting [5]) was determined as 862 nM.
Regarding `C/C(=C\C=C\[C@@H](C)c1cccnc1)[C@H]1OC(=O)C[C@H](O)CC[C@@](C)(O)[C@@H](OC(=O)N2CCN(C3CCCCCC3)CC2)/C=C/[C@@H]1C` (single isomer, unassigned) [Compound 159], the GI50 in assay [2] (setting [7]) worked out at 15 nM; in assay [3] (setting [8]), 13.3 nM.
For `CC[C@H](O)[C@@H](C)[C@H]1O[C@@H]1C[C@@](C)(O)/C=C/C=C(\C)[C@H]1OC(=O)C[C@H](O)CC[C@@](C)(OC)[C@@H](OC(=O)N(C)CCN(C)C)/C=C/[C@@H]1C`, in assay [2] (setting [4]), the Emax is -64.4%. In addition, the concentration for 50% growth inhibition (GI50) in assay [2] (setting [5]) was found to be 3.48 nM.
